Some test systems named below: M19-MEL; XF498; CAKI-1; DLD-1; NCI-H23; A498; KM-20L2; MCF7; NCI/ADR-RES; DMS-114; DMS-273; MOLT-4; TK-10; M14; ACHN; 786-0.
Common to all, as to test: inhibition of tumour cell growth, NCI panel, 48 h

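Briefly, cells in 96-well plates were exposed to five compound concentrations for 48 h, and endpoints were estimated by linear interpolation. GI50: concentration for 50% inhibition of growth.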 Activity calls are given as the source filed them. No stated cut-off is given here; in the data, active = GI50 up to about 1.1 µM and inactive = higher.

For the compound `COc1cc2c(oc(=O)c3cc(C)cc(OC)c32)c2c(C3OC(C)C(O)C(C)(O)C3O)ccc(O)c12` (stereo not drawn), the GI50 with M19-MEL was 0.706 µM (active); with XF498, 0.37 µM (active); with CAKI-1, 0.432 µM (active); with DLD-1, 0.845 µM (active); in the assay with NCI-H23, 0.223 µM (active); in the assay with A498, 0.465 µM (active). The GI50 was 0.664 µM (active) in the assay with KM-20L2; 0.237 µM (active) in the assay with MCF7; 0.622 µM (active) in the assay on NCI/ADR-RES; 0.315 µM (active) in the assay on DMS-114; 0.336 µM (active) in the assay with DMS-273; 0.075 µM (active) in the assay on MOLT-4.
As for `C=CCOCCC(CC=C)C(=O)CC(=O)OC` (stereo not drawn), the GI50 in the assay with XF498, in the assay with DLD-1, with NCI-H23, with A498, in the assay with TK-10 and with KM-20L2 was > 100 µM (inactive) each time. Also, the GI50 with M14 is > 100 µM (inactive); with DMS-273, 45.3 µM (inactive); with MOLT-4, 28.5 µM (inactive); in the assay on ACHN, > 100 µM (inactive).
As for `c1ccc2c(c1)NCc1cc3ccccc3nc1O2`, the GI50 in the assay with M19-MEL was > 100 µM (inactive); in the assay with XF498, > 100 µM (inactive); in the assay with CAKI-1, > 100 µM (inactive); in the assay on DLD-1, > 100 µM (inactive); in the assay with NCI-H23, > 100 µM (inactive); with A498, > 75.5 µM (inactive). The GI50 is 16 µM (inactive) in the assay with MCF7; > 77.8 µM (inactive) with NCI/ADR-RES; 99.5 µM (inactive) with DMS-114; > 100 µM (inactive) in the assay on DMS-273; 83 µM (inactive) in the assay on MOLT-4.
For the compound `COC1C(O)C(n2ncc3c(SC)nc(SC)nc32)OC1C(O)CO` (stereo not drawn), the GI50 in the assay with M19-MEL, in the assay on XF498, in the assay with DLD-1, with NCI-H23, in the assay with A498 and with KM-20L2 was > 100 µM (inactive) each time. The GI50 with MCF7, in the assay with NCI/ADR-RES, in the assay with DMS-114, in the assay on DMS-273 and with MOLT-4 was > 100 µM (inactive) throughout.
Take `O=C1NC(=O)C(CCO)(c2ccccc2)C(=O)N1`: the GI50 in the assay on M19-MEL was > 100 µM (inactive); in the assay on XF498, > 68.4 µM (inactive); in the assay on DLD-1, > 100 µM (inactive); in the assay on NCI-H23, > 100 µM (inactive); in the assay on A498, > 100 µM (inactive); with KM-20L2, > 100 µM (inactive). Moreover, the GI50 with MCF7, with NCI/ADR-RES, in the assay with DMS-114, with DMS-273 and with MOLT-4 was > 100 µM (inactive) each time.
Take `Cc1ccc(S(=O)(=O)N(C=O)N=C2CCN(Cc3ccccc3)CC2)cc1`: the GI50 in the assay with M19-MEL, with XF498, with CAKI-1, in the assay on DLD-1, with NCI-H23 and with A498 was > 100 µM (inactive) each time. The GI50 with TK-10, in the assay with KM-20L2, in the assay on M14, in the assay on DMS-273, in the assay on MOLT-4 and in the assay on 786-0 was > 100 µM (inactive) throughout. Besides, the GI50 with ACHN is > 100 µM (inactive).
`CSc1nc(NC2OC(COC(C)=O)C(OC(C)=O)C(OC(C)=O)C2OC(C)=O)c2c(OC(C)=O)c(C)c(=O)oc2n1` (stereo not drawn): the GI50 with M19-MEL, in the assay with XF498, in the assay on CAKI-1, with DLD-1, in the assay with NCI-H23 and in the assay with A498 was > 100 µM (inactive) in each case. For the same compound, the GI50 in the assay with TK-10, with KM-20L2, in the assay on M14, in the assay with DMS-114, in the assay on MOLT-4 and in the assay with 786-0 was > 100 µM (inactive) throughout. For the same compound, the GI50 in the assay with ACHN is > 100 µM (inactive).
As to `N#CC1=C(O)NC(O)=C(C#N)C1c1c(Cl)cccc1Cl`, the GI50 is 21.4 µM (inactive) with M19-MEL; 61.4 µM (inactive) in the assay on XF498; 30.1 µM (inactive) with CAKI-1; 16.7 µM (inactive) in the assay with DLD-1; 29.4 µM (inactive) in the assay on NCI-H23; 23.2 µM (inactive) in the assay with A498. For the same compound, the GI50 with TK-10 was 40.4 µM (inactive); with KM-20L2, 34.8 µM (inactive); in the assay with M14 it was 26.9 µM (inactive); with DMS-114, 18.8 µM (inactive); with DMS-273, 26.2 µM (inactive); with MOLT-4 it was > 100 µM (inactive). The GI50 in the assay with ACHN is 33.3 µM (inactive).
Take `COc1ccc2[nH]c3c(C)c4ccncc4c(C)c3c2c1`: the GI50 in the assay on XF498 was 2.7 µM (inactive); in the assay on CAKI-1, 0.601 µM (active); with DLD-1, 0.123 µM (active); in the assay with NCI-H23, 0.34 µM (active); in the assay on A498, 0.504 µM (active); in the assay with KM-20L2, 0.169 µM (active). The GI50 was 0.359 µM (active) with MCF7; 0.139 µM (active) in the assay with NCI/ADR-RES; 0.446 µM (active) in the assay on DMS-114; 0.218 µM (active) with DMS-273; 0.0635 µM (active) with MOLT-4.
As to `CCOC(=O)c1c[nH]c2cc3c(cc2c1=O)CCS3(=O)=O.CCOC(=O)c1c[nH]c2ccc3c(c2c1=O)S(=O)(=O)CC3`, the GI50 with M19-MEL, with XF498, in the assay with CAKI-1, in the assay with DLD-1, with NCI-H23 and in the assay with A498 was > 100 µM (inactive) each time. Further, the GI50 is > 100 µM (inactive) in the assay on KM-20L2; 83.8 µM (inactive) in the assay on MCF7; > 100 µM (inactive) in the assay on NCI/ADR-RES; > 100 µM (inactive) with DMS-114; > 100 µM (inactive) with DMS-273; > 100 µM (inactive) with MOLT-4.
In the case of `Cc1ccc(C#CS(=O)(=O)C(F)(F)F)cc1`, the GI50 with M19-MEL, in the assay on XF498, in the assay with DLD-1, in the assay on NCI-H23, with A498 and with KM-20L2 was > 100 µM (inactive) in each case. For the same compound, the GI50 with MCF7, with NCI/ADR-RES, in the assay on DMS-114, in the assay with DMS-273 and in the assay on MOLT-4 was > 100 µM (inactive) each time.
Consider `CN(C)CCCNC(=O)N/N=C/c1ccccc1`, for which the GI50 in the assay with M19-MEL, in the assay on XF498, in the assay on DLD-1, with A498, in the assay on TK-10 and in the assay with DMS-114 was > 100 µM (inactive) in each case. Also, the GI50 in the assay on DMS-273, in the assay with MOLT-4 and in the assay on ACHN was > 100 µM (inactive) in each case.
For the compound `Nc1ccccc1Sc1ccc(Cl)cc1`, the GI50 with M19-MEL was 23 µM (inactive); in the assay with DLD-1, 34.6 µM (inactive); with NCI-H23, 26.2 µM (inactive); in the assay with A498, 54.2 µM (inactive); with TK-10, 35.6 µM (inactive); in the assay on KM-20L2, 20.9 µM (inactive). The GI50 in the assay with M14 was 31.8 µM (inactive); in the assay with DMS-114, 21.2 µM (inactive); with DMS-273, 26.1 µM (inactive); with MOLT-4, > 10 µM (inactive); in the assay with ACHN, 27 µM (inactive).

(Values after ChEMBL document CHEMBL1201862, “PubChem BioAssay data set” (2004).)
